According to patent US7803554B2, “Detection of binding factors with fluorescence polarization” (priority 2000, dated 2010):

How the values were obtained:
SSB = SSB (Escherichia coli, UniProt P0AGE0); settings: fluorescence quenching methods; Molineux 1975, Krauss 1981; cited from earlier work
[1] = tested on: mouse monoclonal antibody 8E11; assay: CE/LIF competitive binding of unlabeled BPDE-16-mer and TMR-BPDE-16-mer to antibody; settings: 9.6 nM 16mer*, 33 nM antibody
Method: Simultaneous binding of two BPDE-DNA adducts to the antibody: Both TMR-labeled and unlabeled BPDE-adducts were allowed to bind with the antibody. The freshly diluted BPDE-16-mer (16mer) and TMR-BPDE-16-mer (16mer*) solutions were mixed together before addition of the antibody. Concentrations of the TMR-BPDE-16-mer and the antibody were kept constant at 9.6 nM and 33.3 nM, respectively, and the unlabeled BPDE-16-mer was varied from 2.5 nM to […]. The sample mixtures were incubated for 5 min at room temperature, then analyzed by CE/LIF. Similarly, the antibody was added to mixtures of the TMR-BPDE-16mer and BPDE-90mer to study the competitive binding and ligand exchange.
The relative changes of the primary and secondary complexes with varying concentrations of unlabeled 16mer when it is incubated with 9.6 nM TMR-labeled 16mer* and 33 nM (5 μg/mL) antibody were measured. When the concentration of the unlabeled 16mer is below 10 nM, the primary complex [Ab(16mer*)] dominates and its amount remains almost constant with increasing concentration of the unlabeled 16 mer up to 10 nM. The total ligand concentration (16mer* and 16mer) is lower compared with that of the antibody, and there are excess antibody binding sites available. Thus, no significant competition between the two ligands takes place. […]

[2] = tested on: mouse monoclonal antibody 8E11; assay: CE/LIF binding stoichiometry of TMR-BPDE oligonucleotides with antibody; settings: 24 nM oligonucleotide
Method: The separation was carried out at room temperature with a separation voltage of 15 kV. The running buffer were either 1× tris-glycine (25 mM Tris, 192 mM glycine, pH 8.3) or 0.5× tris-glycine (12.5 mM tris and 96 mM glycine, pH 8.3). The capillary was washed approximately every 3 injections with 0.02 M NaOH electrophoretically at 15 kV for 7 min followed by electrophoresis using water and the running buffer for 7 min each. All capillary electrophoresis data were analyzed using Igor Pro software (version 3.1, WaveMetrics Inc., Lake Oswego, Oreg.).
Complex formation of TMR-labeled BPDE-DNA adducts and antibody: TMR-BPDE-16-mer and TMR-BPDE-90-mer samples were diluted to appropriate concentrations in running buffer (tris-glycine, pH 8.3). The double stranded BPDE-90-mer was denatured by heating at 95° C. for 5 min in a heating block. It was then placed on ice to prevent reannealing. After cooling, the samples were briefly centrifuged in a microcentrifuge (Z233M, Hermle) to collect condensation from the side of the tube, then gently mixed to ensure a homogenous solution. TMR-BPDE-16-mer was synthesized as a single-stranded oligonucleotide. […] After addition of antibody to the BPDE-oligonucleotide solutions, the samples were gently vortexed to ensure complete mixing and incubated at the room temperature for 5-10 min, then analyzed by CE/LIF. […]

SSB, sequence (P0AGE0 2-178 limits assumed): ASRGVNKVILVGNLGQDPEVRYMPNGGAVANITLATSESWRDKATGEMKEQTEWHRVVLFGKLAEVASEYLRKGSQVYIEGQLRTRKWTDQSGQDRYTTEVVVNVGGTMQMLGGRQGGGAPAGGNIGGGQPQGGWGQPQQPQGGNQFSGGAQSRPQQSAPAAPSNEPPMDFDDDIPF

## d(pT)16
SSB
  affinity of SSB: 1.4e+06 M⁻¹

## d(pT)8
SSB
  affinity of SSB: about 2×10^6 M^−1

## unlabeled 16mer: unlabeled 16-mer 5′-CCCATTATGCATAACC-3′ with a BPDE adduct (chemistry not fully specified)
[1]
  competitor concentration at which secondary complexes reach a maximum: 100 nM
  competitor concentration resulting in disappearance of the primary Ab(16mer*) complex: above 250 nM

## 16mer*: 5′-TMR-labeled 16-mer 5′-CCCATTATGCATAACC-3′ with a single BPDE adduct (single BPDE adduct, position not given here)
[2]; antibody 1 μg/mL (maximum)
  share of total oligonucleotide present as secondary complex (1:2): 50%
[2]; antibody 8-16 μg/mL (50-100 nM)
  share of total oligonucleotide present as primary complex (1:1) with the antibody: 80-85%
